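1) Cells in 96-well plates. 2) Compound, 48 h, 5 concentrations. 3) Linear interpolation between surrounding doses. 4) Unreached endpoint = highest concentration. The concentration for full growth arrest is given as TGI.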
Key:
Assay in all cases: NCI anticancer screen, dose series, 48 h
HCC-2998 colon = test system: HCC-2998 colon
EKVX NSCLC = test system: EKVX NSCLC
HL-60(TB) leukemia = test system: HL-60(TB) leukemia
UACC-257 melanoma = test system: UACC-257 melanoma
IGROV1 ovarian = test system: IGROV1 ovarian
786-0 renal = test system: 786-0 renal
M19-MEL melanoma = test system: M19-MEL melanoma
U251 CNS = test system: U251 CNS
DMS 114 small cell lung = test system: DMS 114 small cell lung
SK-MEL-2 melanoma = test system: SK-MEL-2 melanoma
K-562 leukemia = test system: K-562 leukemia
A549 NSCLC = test system: A549 NSCLC
NCI-H460 lung = test system: NCI-H460 lung
OVCAR-5 ovarian = test system: OVCAR-5 ovarian
M14 melanoma = test system: M14 melanoma
NCI-H226 lung = test system: NCI-H226 lung
SW-620 colon = test system: SW-620 colon
ACHN renal = test system: ACHN renal
RXF 393 renal = test system: RXF 393 renal
SN12C renal = test system: SN12C renal
SF-539 CNS = test system: SF-539 CNS
SK-MEL-5 melanoma = test system: SK-MEL-5 melanoma
CAKI-1 renal = test system: CAKI-1 renal
MOLT-4 leukemia = test system: MOLT-4 leukemia
TK-10 renal = test system: TK-10 renal
KM12 colon = test system: KM12 colon
HOP-62 NSCLC = test system: HOP-62 NSCLC
SF-295 CNS = test system: SF-295 CNS
HOP-18 NSCLC = test system: HOP-18 NSCLC
RXF-631 renal = test system: RXF-631 renal
HCT-116 colon = test system: HCT-116 colon
SF-268 CNS = test system: SF-268 CNS
OVCAR-3 ovarian = test system: OVCAR-3 ovarian
UACC-62 melanoma = test system: UACC-62 melanoma
RPMI-8226 leukemia = test system: RPMI-8226 leukemia
SR leukemia = test system: SR leukemia
SK-OV-3 ovarian = test system: SK-OV-3 ovarian
UO-31 renal = test system: UO-31 renal
OVCAR-8 ovarian = test system: OVCAR-8 ovarian
OVCAR-4 ovarian = test system: OVCAR-4 ovarian
LOX IMVI melanoma = test system: LOX IMVI melanoma
MALME-3M melanoma = test system: MALME-3M melanoma
SNB-19 CNS = test system: SNB-19 CNS
HOP-92 NSCLC = test system: HOP-92 NSCLC
SNB-78 CNS = test system: SNB-78 CNS
NCI-H522 lung = test system: NCI-H522 lung
DLD-1 colon = test system: DLD-1 colon
LXFL 529 NSCLC = test system: LXFL 529 NSCLC
HT29 colon = test system: HT29 colon
XF 498 CNS = test system: XF 498 CNS
NCI-H23 lung = test system: NCI-H23 lung
CCRF-CEM leukemia = test system: CCRF-CEM leukemia
HCT-15 colon = test system: HCT-15 colon
KM20L2 colon = test system: KM20L2 colon
COLO 205 colon = test system: COLO 205 colon
A498 renal = test system: A498 renal

## CC(=O)/C(=C\c1ccccc1)C(=O)Nc1ccccc1
HCC-2998 colon
  TGI: > 100 µM
EKVX NSCLC
  TGI: > 100 µM
HL-60(TB) leukemia
  TGI: > 100 µM
UACC-257 melanoma
  TGI: > 100 µM
IGROV1 ovarian
  TGI: > 100 µM
786-0 renal
  TGI: > 100 µM
M19-MEL melanoma
  TGI: > 100 µM
U251 CNS
  TGI: > 100 µM
DMS 114 small cell lung
  TGI: > 100 µM
SK-MEL-2 melanoma
  TGI: > 100 µM
K-562 leukemia
  TGI: > 100 µM
A549 NSCLC
  TGI: > 100 µM
NCI-H460 lung
  TGI: > 100 µM
OVCAR-5 ovarian
  TGI: > 100 µM
M14 melanoma
  TGI: > 100 µM
NCI-H226 lung
  TGI: > 100 µM
SW-620 colon
  TGI: > 100 µM
ACHN renal
  TGI: > 100 µM
RXF 393 renal
  TGI: > 100 µM
SN12C renal
  TGI: > 100 µM
SF-539 CNS
  TGI: > 100 µM
SK-MEL-5 melanoma
  TGI: > 100 µM
CAKI-1 renal
  TGI: > 100 µM
MOLT-4 leukemia
  TGI: > 100 µM
TK-10 renal
  TGI: > 100 µM
KM12 colon
  TGI: > 100 µM
HOP-62 NSCLC
  TGI: > 100 µM
SF-295 CNS
  TGI: > 100 µM
HOP-18 NSCLC
  TGI: > 100 µM
RXF-631 renal
  TGI: > 100 µM
HCT-116 colon
  TGI: > 100 µM
SF-268 CNS
  TGI: > 100 µM
OVCAR-3 ovarian
  TGI: > 100 µM
UACC-62 melanoma
  TGI: > 100 µM
RPMI-8226 leukemia
  TGI: > 100 µM
SR leukemia
  TGI: > 100 µM
SK-OV-3 ovarian
  TGI: > 100 µM
UO-31 renal
  TGI: > 100 µM
OVCAR-8 ovarian
  TGI: > 100 µM
OVCAR-4 ovarian
  TGI: > 100 µM
LOX IMVI melanoma
  TGI: > 100 µM
MALME-3M melanoma
  TGI: > 100 µM
SNB-19 CNS
  TGI: > 100 µM
HOP-92 NSCLC
  TGI: > 100 µM
SNB-78 CNS
  TGI: > 100 µM
NCI-H522 lung
  TGI: > 100 µM
DLD-1 colon
  TGI: > 100 µM
LXFL 529 NSCLC
  TGI: > 100 µM
HT29 colon
  TGI: > 100 µM
XF 498 CNS
  TGI: > 100 µM
NCI-H23 lung
  TGI: > 100 µM
CCRF-CEM leukemia
  TGI: > 100 µM

## COC(=O)[C@]1(C)CCC[C@]2(C)C3CC4OOC3(C=C4C(C)(C)O)CCC21 (some centres not stated)
HCT-15 colon
  TGI: > 100 µM
EKVX NSCLC
  TGI: > 100 µM
HL-60(TB) leukemia
  TGI: 32 µM
UACC-257 melanoma
  TGI: > 100 µM
KM20L2 colon
  TGI: > 100 µM
IGROV1 ovarian
  TGI: > 100 µM
786-0 renal
  TGI: > 100 µM
M19-MEL melanoma
  TGI: > 100 µM
COLO 205 colon
  TGI: > 100 µM
U251 CNS
  TGI: > 100 µM
DMS 114 small cell lung
  TGI: > 100 µM
SK-MEL-2 melanoma
  TGI: > 100 µM
K-562 leukemia
  TGI: 64.3 µM
A549 NSCLC
  TGI: > 100 µM
NCI-H460 lung
  TGI: > 100 µM
OVCAR-5 ovarian
  TGI: > 100 µM
M14 melanoma
  TGI: > 100 µM
NCI-H226 lung
  TGI: > 100 µM
SW-620 colon
  TGI: > 100 µM
ACHN renal
  TGI: > 100 µM
A498 renal
  TGI: > 100 µM
SN12C renal
  TGI: > 100 µM
SF-539 CNS
  TGI: > 100 µM
SK-MEL-5 melanoma
  TGI: > 100 µM
CAKI-1 renal
  TGI: > 100 µM
MOLT-4 leukemia
  TGI: 67.3 µM
TK-10 renal
  TGI: > 100 µM
KM12 colon
  TGI: > 100 µM
HOP-62 NSCLC
  TGI: > 100 µM
SF-295 CNS
  TGI: > 100 µM
RXF-631 renal
  TGI: > 100 µM
HCT-116 colon
  TGI: > 100 µM
SF-268 CNS
  TGI: > 100 µM
OVCAR-3 ovarian
  TGI: > 100 µM
UACC-62 melanoma
  TGI: > 100 µM
RPMI-8226 leukemia
  TGI: 37.3 µM
SK-OV-3 ovarian
  TGI: > 100 µM
OVCAR-8 ovarian
  TGI: > 100 µM
OVCAR-4 ovarian
  TGI: > 100 µM
LOX IMVI melanoma
  TGI: > 100 µM
MALME-3M melanoma
  TGI: > 100 µM
SNB-19 CNS
  TGI: > 100 µM
SNB-78 CNS
  TGI: > 100 µM
NCI-H522 lung
  TGI: 47.3 µM
DLD-1 colon
  TGI: > 100 µM
LXFL 529 NSCLC
  TGI: 65.6 µM
HT29 colon
  TGI: 56.9 µM
XF 498 CNS
  TGI: 46.7 µM
NCI-H23 lung
  TGI: > 100 µM
CCRF-CEM leukemia
  TGI: 57.8 µM
